Columns and labels:
[1] = target: Tyrosine-protein kinase ABL1 (Homo sapiens) (UniProt P00519); experiment: Inhibition of ABL1 (unknown origin) at 1 uM preincubated for 10 mins followed by substrate addition measured for 60 to 120 mins by HTRF assay relative to control; conditions: time 70-130 min
[2] = Clearance in Sprague-Dawley rat at 10 mg/kg, po; format: ADME, organism-based; conditions: in vivo
[3] = target: Hepatocyte growth factor receptor (Homo sapiens) (UniProt P08581); experiment: Inhibition of MET (unknown origin) at 1 uM preincubated for 10 mins followed by substrate addition measured for 60 to 120 mins by HTRF assay relative to control; conditions: time 70-130 min
[4] = target: Tyrosine-protein kinase receptor UFO (Homo sapiens) (UniProt P30530); experiment: Inhibition of AXL (unknown origin) at 1 uM preincubated for 10 mins followed by substrate addition measured for 60 to 120 mins by HTRF assay relative to control; conditions: time 70-130 min
[5] = target: Ephrin type-A receptor 4 (Homo sapiens) (UniProt P54764); experiment: Inhibition of EPHA4 (unknown origin) at 1 uM preincubated for 10 mins followed by substrate addition measured for 60 to 120 mins by HTRF assay relative to control; conditions: time 70-130 min
[6] = target: Vascular endothelial growth factor receptor 3 (Homo sapiens) (UniProt P35916); experiment: Inhibition of FLT4 (unknown origin) at 1 uM preincubated for 10 mins followed by substrate addition measured for 60 to 120 mins by HTRF assay relative to control; conditions: time 70-130 min
[7] = Cmax in Sprague-Dawley rat at 2 mg/kg, iv; format: ADME, organism-based; set-up: dose 2 mg/kg, route iv; conditions: in vivo
[8] = Clearance in Sprague-Dawley rat at 2 mg/kg, iv; format: ADME, organism-based; conditions: in vivo
[9] = Toxicity in AML […] mouse model allografted with mouse C1498 cells assessed as body weight loss at 40 to 80 mg/kg, po administered daily for 15 days measured on every 2 days; format: organism-based; conditions: in vivo, 360 h, dose 40-80 mg/kg, time 15 day
[10] = target: Protein-tyrosine kinase 2-beta (Homo sapiens) (UniProt Q14289); experiment: Inhibition of PYK2 (unknown origin) at 1 uM preincubated for 10 mins followed by substrate addition measured for 60 to 120 mins by HTRF assay relative to control; conditions: time 70-130 min
[11] = target: Vascular endothelial growth factor receptor 2 (Homo sapiens) (UniProt P35968); experiment: Inhibition of KDR (unknown origin) at 1 uM preincubated for 10 mins followed by substrate addition measured for 60 to 120 mins by HTRF assay relative to control; conditions: time 70-130 min
[12] = target: Ephrin type-A receptor 6 (Homo sapiens) (UniProt Q9UF33); experiment: Inhibition of EPHA6 (unknown origin) at 1 uM preincubated for 10 mins followed by substrate addition measured for 60 to 120 mins by HTRF assay relative to control; conditions: time 70-130 min
[13] = Acute toxicity in C57BL/6 mouse assessed as histopathological change in liver at 2000 mg/kg, IG measured for 14 days by H&E staining based analysis; format: organism-based; conditions: in vivo, po, 336 h, time 14 day
[14] = Tmax in Sprague-Dawley rat at 2 mg/kg, iv; format: ADME, organism-based; conditions: in vivo
[15] = target: CDK3/Cyclin E (Homo sapiens) (UniProt P24864+Q00526); experiment: Inhibition of CDK3/CyclinE1 (unknown origin) at 1 uM preincubated for 10 mins followed by substrate addition measured for 60 to 120 mins by HTRF assay relative to control; format: protein-complex assay; conditions: time 70-130 min
[16] = system: HL-60; experiment: Induction of apoptosis in human HL-60 cells assessed as early apoptosis cells at 1 uM incubated for 48 hrs by annexin V-FITC/PI staining based flow cytometry (reference value: 2.08 %); format: functional
[17] = target: NT-3 growth factor receptor (Homo sapiens) (UniProt Q16288); experiment: Inhibition of TRKC (unknown origin) at 1 uM preincubated for 10 mins followed by substrate addition measured for 60 to 120 mins by HTRF assay relative to control; conditions: time 70-130 min
[18] = system: MDA-MB-231; experiment: Antiproliferative activity against human MDA-MB-231 cells incubated for 48 hrs by CCK8 assay; format: functional
[19] = target: CDK9/cyclin T1 (Homo sapiens, UniProt P50750); experiment: Inhibition of CDK9/Cyclin T1 (unknown origin) preincubated for 10 mins followed by substrate addition measured for 60 to 120 mins by HTRF assay; format: protein-complex assay
[20] = target: Tyrosine-protein kinase ITK/TSK (Homo sapiens) (UniProt Q08881); experiment: Inhibition of ITK (unknown origin) at 1 uM preincubated for 10 mins followed by substrate addition measured for 60 to 120 mins by HTRF assay relative to control; conditions: time 70-130 min
[21] = target: Tyrosine-protein kinase TXK (Homo sapiens) (UniProt P42681); experiment: Inhibition of TXK (unknown origin) at 1 uM preincubated for 10 mins followed by substrate addition measured for 60 to 120 mins by HTRF assay relative to control; conditions: time 70-130 min
[22] = target: Muscle, skeletal receptor tyrosine-protein kinase (Homo sapiens) (UniProt O15146); experiment: Inhibition of MUSK (unknown origin) at 1 uM preincubated for 10 mins followed by substrate addition measured for 60 to 120 mins by HTRF assay relative to control; conditions: time 70-130 min
[23] = Acute toxicity in C57BL/6 mouse assessed as histopathological change in spleen at 2000 mg/kg, IG measured for 14 days by H&E staining based analysis; format: organism-based; conditions: in vivo, po, 336 h, time 14 day
[24] = target: Tyrosine-protein kinase ABL2 (Homo sapiens) (UniProt P42684); experiment: Inhibition of ABL2 (unknown origin) at 1 uM preincubated for 10 mins followed by substrate addition measured for 60 to 120 mins by HTRF assay relative to control; conditions: time 70-130 min
[25] = target: Fibroblast growth factor receptor 4 (Homo sapiens) (UniProt P22455); experiment: Inhibition of FGFR4 (unknown origin) at 1 uM preincubated for 10 mins followed by substrate addition measured for 60 to 120 mins by HTRF assay relative to control; conditions: time 70-130 min
[26] = target: Protein-tyrosine kinase 6 (Homo sapiens) (UniProt Q13882); experiment: Inhibition of BRK (unknown origin) at 1 uM preincubated for 10 mins followed by substrate addition measured for 60 to 120 mins by HTRF assay relative to control; conditions: time 70-130 min
[27] = target: Ephrin type-B receptor 2 (Homo sapiens) (UniProt P29323); experiment: Inhibition of EPHB2 (unknown origin) at 1 uM preincubated for 10 mins followed by substrate addition measured for 60 to 120 mins by HTRF assay relative to control; conditions: time 70-130 min
[28] = target: Macrophage-stimulating protein receptor (Homo sapiens) (UniProt Q04912); experiment: Inhibition of RON (unknown origin) at 1 uM preincubated for 10 mins followed by substrate addition measured for 60 to 120 mins by HTRF assay relative to control; conditions: time 70-130 min
[29] = target: Tyrosine-protein kinase FRK (Homo sapiens) (UniProt P42685); experiment: Inhibition of FRK (unknown origin) at 1 uM preincubated for 10 mins followed by substrate addition measured for 60 to 120 mins by HTRF assay relative to control; conditions: time 70-130 min
[30] = target: Proto-oncogene tyrosine-protein kinase receptor Ret (Homo sapiens) (UniProt P07949); experiment: Inhibition of RET (unknown origin) at 1 uM preincubated for 10 mins followed by substrate addition measured for 60 to 120 mins by HTRF assay relative to control; conditions: time 70-130 min
Proto-oncogene tyrosine-protein kinase receptor Ret (Homo sapiens), sequence (P07949 whole entry): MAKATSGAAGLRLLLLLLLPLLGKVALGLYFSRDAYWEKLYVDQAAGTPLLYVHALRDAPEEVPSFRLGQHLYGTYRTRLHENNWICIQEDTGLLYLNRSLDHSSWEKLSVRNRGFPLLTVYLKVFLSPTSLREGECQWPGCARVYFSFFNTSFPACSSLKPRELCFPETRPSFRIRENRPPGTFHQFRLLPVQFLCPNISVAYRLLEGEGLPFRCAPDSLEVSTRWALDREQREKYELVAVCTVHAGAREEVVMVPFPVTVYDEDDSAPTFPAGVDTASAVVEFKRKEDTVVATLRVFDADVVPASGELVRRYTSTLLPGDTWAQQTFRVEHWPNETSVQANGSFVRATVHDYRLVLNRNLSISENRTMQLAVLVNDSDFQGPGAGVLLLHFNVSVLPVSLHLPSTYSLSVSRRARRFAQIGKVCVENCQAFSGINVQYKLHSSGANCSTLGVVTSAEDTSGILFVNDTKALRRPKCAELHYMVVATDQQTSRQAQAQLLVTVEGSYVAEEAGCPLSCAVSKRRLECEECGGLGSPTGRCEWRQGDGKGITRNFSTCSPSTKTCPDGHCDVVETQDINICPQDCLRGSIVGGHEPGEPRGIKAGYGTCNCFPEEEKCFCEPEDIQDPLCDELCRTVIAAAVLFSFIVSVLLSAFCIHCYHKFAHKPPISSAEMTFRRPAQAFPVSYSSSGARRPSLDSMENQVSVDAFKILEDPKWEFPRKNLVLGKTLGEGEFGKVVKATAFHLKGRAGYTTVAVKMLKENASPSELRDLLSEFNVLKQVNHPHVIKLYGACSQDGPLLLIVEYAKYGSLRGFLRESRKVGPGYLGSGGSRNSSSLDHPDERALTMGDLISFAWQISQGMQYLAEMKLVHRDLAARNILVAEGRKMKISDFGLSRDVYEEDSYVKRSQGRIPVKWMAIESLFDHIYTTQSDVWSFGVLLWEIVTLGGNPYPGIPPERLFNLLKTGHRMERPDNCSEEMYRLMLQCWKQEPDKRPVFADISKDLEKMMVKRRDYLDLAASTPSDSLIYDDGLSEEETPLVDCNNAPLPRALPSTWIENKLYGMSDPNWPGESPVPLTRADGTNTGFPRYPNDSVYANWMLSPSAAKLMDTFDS

Ephrin type-A receptor 6 (Homo sapiens), sequence (Q9UF33 whole entry): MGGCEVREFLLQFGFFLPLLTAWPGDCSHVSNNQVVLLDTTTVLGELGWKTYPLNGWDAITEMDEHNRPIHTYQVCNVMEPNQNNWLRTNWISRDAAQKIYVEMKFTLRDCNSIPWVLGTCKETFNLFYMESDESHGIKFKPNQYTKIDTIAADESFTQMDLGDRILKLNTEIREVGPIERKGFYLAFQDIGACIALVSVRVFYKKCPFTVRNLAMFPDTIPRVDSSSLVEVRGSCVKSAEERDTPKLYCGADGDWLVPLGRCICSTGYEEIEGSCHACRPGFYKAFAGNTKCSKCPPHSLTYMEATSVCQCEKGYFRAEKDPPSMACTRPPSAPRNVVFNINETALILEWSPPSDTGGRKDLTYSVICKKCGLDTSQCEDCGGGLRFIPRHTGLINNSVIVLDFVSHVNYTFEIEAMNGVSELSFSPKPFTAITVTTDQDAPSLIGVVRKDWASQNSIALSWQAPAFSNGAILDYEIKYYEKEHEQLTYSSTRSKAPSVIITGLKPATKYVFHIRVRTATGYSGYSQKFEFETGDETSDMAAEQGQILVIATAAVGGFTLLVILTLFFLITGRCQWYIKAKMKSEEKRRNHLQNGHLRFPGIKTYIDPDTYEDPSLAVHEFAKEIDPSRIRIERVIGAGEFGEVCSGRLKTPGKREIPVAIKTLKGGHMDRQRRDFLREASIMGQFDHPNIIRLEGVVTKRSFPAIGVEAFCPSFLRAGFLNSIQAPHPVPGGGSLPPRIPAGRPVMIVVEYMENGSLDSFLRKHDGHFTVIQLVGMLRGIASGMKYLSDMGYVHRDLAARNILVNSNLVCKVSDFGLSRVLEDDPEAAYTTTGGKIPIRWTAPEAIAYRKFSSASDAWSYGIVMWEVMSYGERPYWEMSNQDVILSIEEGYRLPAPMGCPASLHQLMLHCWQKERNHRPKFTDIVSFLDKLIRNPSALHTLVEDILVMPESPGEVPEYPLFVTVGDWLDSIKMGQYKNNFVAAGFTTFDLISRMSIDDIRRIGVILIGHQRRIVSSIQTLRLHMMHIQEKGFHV
CDK9/cyclin T1, sequence (O60563 whole entry): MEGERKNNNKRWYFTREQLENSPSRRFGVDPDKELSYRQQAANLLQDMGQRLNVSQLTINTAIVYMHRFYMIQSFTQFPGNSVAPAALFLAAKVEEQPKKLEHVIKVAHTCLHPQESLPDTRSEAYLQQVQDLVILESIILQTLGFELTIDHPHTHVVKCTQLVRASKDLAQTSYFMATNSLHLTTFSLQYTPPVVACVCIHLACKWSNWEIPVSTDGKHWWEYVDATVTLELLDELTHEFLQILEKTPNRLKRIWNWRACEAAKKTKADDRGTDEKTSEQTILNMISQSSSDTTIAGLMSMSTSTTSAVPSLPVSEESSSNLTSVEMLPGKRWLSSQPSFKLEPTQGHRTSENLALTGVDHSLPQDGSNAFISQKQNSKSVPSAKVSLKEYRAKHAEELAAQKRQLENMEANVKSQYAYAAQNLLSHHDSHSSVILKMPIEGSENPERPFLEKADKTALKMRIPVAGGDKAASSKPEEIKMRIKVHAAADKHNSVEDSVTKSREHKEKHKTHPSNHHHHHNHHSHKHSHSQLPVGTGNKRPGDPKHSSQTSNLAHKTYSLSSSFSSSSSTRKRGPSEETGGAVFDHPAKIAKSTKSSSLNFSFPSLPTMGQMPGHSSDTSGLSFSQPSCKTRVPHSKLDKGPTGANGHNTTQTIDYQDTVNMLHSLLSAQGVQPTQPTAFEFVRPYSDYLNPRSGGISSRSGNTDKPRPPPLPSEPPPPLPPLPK
CDK9/cyclin T1, sequence (P50750 whole entry): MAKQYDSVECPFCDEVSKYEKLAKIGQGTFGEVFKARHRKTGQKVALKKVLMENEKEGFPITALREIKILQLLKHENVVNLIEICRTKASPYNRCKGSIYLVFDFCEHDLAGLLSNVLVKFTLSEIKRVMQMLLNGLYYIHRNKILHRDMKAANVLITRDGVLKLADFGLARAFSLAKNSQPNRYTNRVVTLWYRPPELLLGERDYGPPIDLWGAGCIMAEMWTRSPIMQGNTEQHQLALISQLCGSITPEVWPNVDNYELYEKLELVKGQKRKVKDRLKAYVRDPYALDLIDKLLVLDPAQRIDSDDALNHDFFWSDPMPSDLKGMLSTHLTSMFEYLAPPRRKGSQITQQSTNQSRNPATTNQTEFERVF
Tyrosine-protein kinase ITK/TSK (Homo sapiens), sequence (Q08881 whole entry): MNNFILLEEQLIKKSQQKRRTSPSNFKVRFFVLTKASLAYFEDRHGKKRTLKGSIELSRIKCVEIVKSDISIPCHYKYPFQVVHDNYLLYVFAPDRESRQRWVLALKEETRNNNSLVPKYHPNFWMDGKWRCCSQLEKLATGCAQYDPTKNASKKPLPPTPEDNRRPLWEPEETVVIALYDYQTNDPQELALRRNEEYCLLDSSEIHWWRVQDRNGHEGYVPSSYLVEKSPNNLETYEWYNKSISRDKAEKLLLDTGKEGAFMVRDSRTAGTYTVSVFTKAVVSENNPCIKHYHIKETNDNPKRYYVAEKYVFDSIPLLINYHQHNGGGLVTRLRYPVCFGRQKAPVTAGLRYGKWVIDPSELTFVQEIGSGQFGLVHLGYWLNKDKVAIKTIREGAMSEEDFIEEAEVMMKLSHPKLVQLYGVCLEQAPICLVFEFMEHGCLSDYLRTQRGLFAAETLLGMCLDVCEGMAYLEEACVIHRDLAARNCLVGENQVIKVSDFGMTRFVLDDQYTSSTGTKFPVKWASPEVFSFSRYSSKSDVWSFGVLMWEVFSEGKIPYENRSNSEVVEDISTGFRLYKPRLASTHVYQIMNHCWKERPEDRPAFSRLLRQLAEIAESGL
CDK3/Cyclin E (Homo sapiens), sequence (P24864 whole entry, looked up): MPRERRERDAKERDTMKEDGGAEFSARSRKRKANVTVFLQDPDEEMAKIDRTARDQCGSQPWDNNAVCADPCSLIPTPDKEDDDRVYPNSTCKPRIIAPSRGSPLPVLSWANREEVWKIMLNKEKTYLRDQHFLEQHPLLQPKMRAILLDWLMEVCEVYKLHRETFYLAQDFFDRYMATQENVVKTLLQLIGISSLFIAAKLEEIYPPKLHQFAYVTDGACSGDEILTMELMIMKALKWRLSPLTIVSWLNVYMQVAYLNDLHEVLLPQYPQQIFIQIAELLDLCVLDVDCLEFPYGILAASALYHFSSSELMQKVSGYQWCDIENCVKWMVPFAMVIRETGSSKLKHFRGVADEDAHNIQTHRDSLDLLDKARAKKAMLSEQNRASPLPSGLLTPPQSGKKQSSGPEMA
CDK3/Cyclin E (Homo sapiens), sequence (Q00526 whole entry, looked up): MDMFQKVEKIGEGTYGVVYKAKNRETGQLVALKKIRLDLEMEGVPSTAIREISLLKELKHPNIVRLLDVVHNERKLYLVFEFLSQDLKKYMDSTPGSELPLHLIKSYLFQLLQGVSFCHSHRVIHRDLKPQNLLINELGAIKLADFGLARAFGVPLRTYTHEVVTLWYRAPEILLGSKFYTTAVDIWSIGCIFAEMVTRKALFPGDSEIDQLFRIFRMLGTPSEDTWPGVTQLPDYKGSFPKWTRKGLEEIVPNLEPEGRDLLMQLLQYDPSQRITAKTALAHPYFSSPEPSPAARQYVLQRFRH
Protein-tyrosine kinase 6 (Homo sapiens), sequence (Q13882 whole entry, looked up): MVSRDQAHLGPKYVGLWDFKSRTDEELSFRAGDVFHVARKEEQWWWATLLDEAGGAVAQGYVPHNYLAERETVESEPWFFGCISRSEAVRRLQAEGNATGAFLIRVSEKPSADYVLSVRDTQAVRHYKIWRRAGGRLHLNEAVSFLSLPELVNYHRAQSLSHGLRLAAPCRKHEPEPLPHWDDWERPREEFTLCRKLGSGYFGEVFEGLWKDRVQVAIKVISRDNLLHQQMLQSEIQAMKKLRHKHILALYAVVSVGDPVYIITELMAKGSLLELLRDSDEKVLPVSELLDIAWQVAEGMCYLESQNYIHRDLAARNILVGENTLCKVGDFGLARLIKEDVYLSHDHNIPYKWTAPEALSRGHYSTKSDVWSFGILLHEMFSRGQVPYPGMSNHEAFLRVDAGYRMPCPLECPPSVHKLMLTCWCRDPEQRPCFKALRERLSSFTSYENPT

NC(=O)c1cccc(-c2cnc3[nH]ccc3c2)c1
inhibition [1]: 0% | CL/F [2]: 285 mL/min/kg | inhibition [3]: 0% | inhibition [4]: 12.5% | inhibition [5]: 1.96% | inhibition [6]: 10.7% | Cmax [7]: 231 ng/mL | clearance [8]: 118 mL/min/kg | Activity [9]: Non-Toxic | inhibition [10]: 3.1% | inhibition [11]: 31.1% | inhibition [12]: 0% | Activity [13]: Non-Toxic | Tmax [14]: 4.98 min | inhibition [15]: 1.34% | Activity [16]: 79.4% | inhibition [17]: 10.8% | GI50 [18]: > 50000 nM | IC50 [19]: 711 nM | inhibition [20]: 0% | inhibition [21]: 0% | inhibition [22]: 3.63% | Activity [23]: Non-Toxic | inhibition [24]: 0% | inhibition [25]: 14.1% | inhibition [26]: 12.7% | inhibition [27]: 0% | inhibition [28]: 0.43% | inhibition [29]: 3.82% | inhibition [30]: 23.9%

— ChEMBL document CHEMBL5346907, “Discovery of a novel oral type Ⅰ CDK8 inhibitor against acute myeloid leukemia” (Eur J Med Chem, 2023)
